Measurements as given in patent publication US7157083B2, “Compositions and methods for treating retroviral infections” (priority 1998, dated 2007).

Legend:
Rojo virus = assay: Study 3 hyaluronidase sensitization assay: RT activity after Rojo challenge of naive PBMCs; assay type: cell-based, HIV-1
Method: (§1) Percent virus control (% VC) in the following tables is the mean RT activity (cpm) as a percentage of a virus control. Percent cell control (% CC) is the mean XTT absorbance as a percentage of a cell control.
(§2) Reverse transcriptase (RT) activity was measured in cell-free supernatants. Tritiated thymidine triphosphate (NEN) (TTP) was resuspended in distilled H2O at […]. Poly rA and oligo dT were prepared as a stock solution which was kept at −20° C. The RT reaction buffer was prepared fresh on a daily basis and consists of 125 μL 1.0 M EGTA, 125 μL d H2O, 110 μL 10% SDS, 50 μL 1.0 M Tris (pH 7.4), 50 μL 1.0 M DTT, and 40μ1.0 M MgCl2. These three solutions were mixed together in a ratio of 2 parts TTP, 1 part poly rA:oligo dT, and 1 part reaction buffer. Ten microliters of this reaction mixture was placed in a round bottom microtiter plate and 15 μL of virus containing supernatant was added and mixed. The plate was incubated at 37° C. in a water bath with a solid support to prevent submersion of the plate and incubated for 60 minutes. Following reaction, the reaction volume was spotted onto pieces of DE81 paper, washed 5 times for 5 minutes each in a 5% sodium phosphate buffer, 2 times for 1 minute each in distilled water, 2 times for 1 minute each in 70% ethanol, and then dried. Opti-Fluor O was added to each sample and incorporated radioactivity was quantitated utilizing a Wallace 1450 Microbetaplus liquid scintillation counter.
Assay Summary. […] The the monolayers were 3× washed with PBS, with Human PBMCs (5×10e4/well) returned to the monolayer. The PBMCs were either mixed donor, PHA blast, with IL2 supplemented medium, or were single donor non-PHA blast/no IL2 supplemented. After 72 hours, the PBMCs were removed, reset in a 96 well plate and then challenged with a standard MOI of the Rojo virus. The plates were incubated for an additional 6 days and then assayed for RT activity. The studies were produced in triplicate.

IIIB (HIV IIIB virus) = assay: Study 4 sensitization, Turpin and standard macrophages: RT activity after IIIB challenge; assay type: cell-based
Method: as §1, §2
The macrophage plates were then washed with HBSS multiple times. Fresh mixed pha blast PBMCs (5×10e4/well) were placed on the macrophage cells, allowed to incubate for 72 hours and then harvested and reset in a fresh 96 well plate. The PBMCs were then challenged overnight with the respective virus (IIIB or Rojo) at a standard MOI for that virus. The PBMCs were 5× in plate spin washed with DPBS, incubated 24 hours, at which time 5×10e4 fresh pha blast PBMCs/well were added. The culture was incubated an additional 6 days and then assayed for RT activity.
Where viability corrections were conducted, they were performed by dividing the RT CPM value by the toxicity absorbance in order to compensate for well to well variations noted in the cell titer toxicity noted.

For Hyaluronidase, the “RT activity % VC” value (Rojo virus; 0.20 μg/mL, 5 μL GP120 IIIB, With PHA/IL2) was 78.6%, the “RT activity % VC” value (Rojo virus; 0.20 μg/mL, 5 μL GP120 IIIB, Without PHA/IL2) was 155.9% and the “RT activity % VC” value (Rojo virus; 0.20 μg/mL, 5 μL Rojo, With PHA/IL2) was 88.8%. The “RT activity % VC” value (Rojo virus; 0.20 μg/mL, 5 μL Rojo, Without PHA/IL2) was 77.8%, the “RT activity % VC” value (Rojo virus; 0.20 μg/mL, 10 μL Rojo, Without PHA/IL2) was 112.8% and the “RT activity % VC” value (Rojo virus; 0.20 μg/mL, 50 μL Rojo, With PHA/IL2) was 79.1%. The “RT activity % VC” value (Rojo virus; 0.20 μg/mL, 50 μL Rojo, Without PHA/IL2) was 125.8%, the “RT activity % VC” value (Rojo virus; 0.39 μg/mL, 5 μL GP120 IIIB, With PHA/IL2) was 116.1% and the “RT activity % VC” value (Rojo virus; 0.39 μg/mL, 5 μL GP120 IIIB, Without PHA/IL2) was 195.6%. The “RT activity % VC” value (Rojo virus; 0.39 μg/mL, 5 μL Rojo, With PHA/IL2) was 79.7%, the “RT activity % VC” value (Rojo virus; 0.39 μg/mL, 5 μL Rojo, Without PHA/IL2) was 102.7% and the “RT activity % VC” value (Rojo virus; 0.39 μg/mL, 10 μL Rojo, With PHA/IL2) was 123.2%. The “RT activity % VC” value (Rojo virus; 0.39 μg/mL, 10 μL Rojo, Without PHA/IL2) was 115.9%, the “RT activity % VC” value (Rojo virus; 0.39 μg/mL, 50 μL Rojo, With PHA/IL2) was 87.6% and the “RT activity % VC” value (Rojo virus; 0.39 μg/mL, 50 μL Rojo, Without PHA/IL2) was 149.4%. For the same substance, the “RT activity % VC” value (Rojo virus; 0.78 μg/mL, 5 μL GP120 IIIB, With PHA/IL2) was 101.9%, the “RT activity % VC” value (Rojo virus; 0.78 μg/mL, 5 μL GP120 IIIB, Without PHA/IL2) was 134.4% and the “RT activity % VC” value (Rojo virus; 0.78 μg/mL, 5 μL Rojo, With PHA/IL2) was 68.2%. The “RT activity % VC” value (Rojo virus; 0.78 μg/mL, 5 μL Rojo, Without PHA/IL2) was 7.0%, the “RT activity % VC” value (Rojo virus; 0.78 μg/mL, 10 μL Rojo, With PHA/IL2) was 110.5% and the “RT activity % VC” value (Rojo virus; 0.78 μg/mL, 10 μL Rojo, Without PHA/IL2) was 97.6%. For the same substance, the “RT activity % VC” value (Rojo virus; 0.78 μg/mL, 50 μL Rojo, With PHA/IL2) was 102.6%, the “RT activity % VC” value (Rojo virus; 1.56 μg/mL, 5 μL GP120 IIIB, With PHA/IL2) was 98.0% and the “RT activity % VC” value (Rojo virus; 1.56 μg/mL, 5 μL GP120 IIIB, Without PHA/IL2) was 158.5%. The “RT activity % VC” value (Rojo virus; 1.56 μg/mL, 5 μL Rojo, With PHA/IL2) was 59.0%, the “RT activity % VC” value (Rojo virus; 1.56 μg/mL, 5 μL Rojo, Without PHA/IL2) was 6.4% and the “RT activity % VC” value (Rojo virus; 1.56 μg/mL, 10 μL Rojo, With PHA/IL2) was 125.9%. For the same substance, the “RT activity % VC” value (Rojo virus; 1.56 μg/mL, 10 μL Rojo, Without PHA/IL2) was 115.6%, the “RT activity % VC” value (Rojo virus; 1.56 μg/mL, 50 μL Rojo, With PHA/IL2) was 115.7% and the “RT activity % VC” value (Rojo virus; 1.56 μg/mL, 50 μL Rojo, Without PHA/IL2) was 146.0%. The “RT activity % VC” value (Rojo virus; 3.1 μg/mL, 5 μL GP120 IIIB, With PHA/IL2) was 85.5%, the “RT activity % VC” value (Rojo virus; 3.1 μg/mL, 5 μL GP120 IIIB, Without PHA/IL2) was 145.7% and the “RT activity % VC” value (Rojo virus; 3.1 μg/mL, 5 μL Rojo, With PHA/IL2) was 56.0%. For the same substance, the “RT activity % VC” value (Rojo virus; 3.1 μg/mL, 5 μL Rojo, Without PHA/IL2) was 9.7%, the “RT activity % VC” value (Rojo virus; 3.1 μg/mL, 10 μL Rojo, With PHA/IL2) was 117.8% and the “RT activity % VC” value (Rojo virus; 3.1 μg/mL, 10 μL Rojo, Without PHA/IL2) was 97.3%. The “RT activity % VC” value (Rojo virus; 3.1 μg/mL, 50 μL Rojo, With PHA/IL2) was 97.3%, the “RT activity % VC” value (Rojo virus; 3.1 μg/mL, 50 μL Rojo, Without PHA/IL2) was 86.8% and the “RT activity % VC” value (Rojo virus; 6.3 μg/mL, 5 μL GP120 IIIB, With PHA/IL2) was 105.3%. For the same substance, the “RT activity % VC” value (Rojo virus; 6.3 μg/mL, 5 μL GP120 IIIB, Without PHA/IL2) was 71.7%, the “RT activity % VC” value (Rojo virus; 6.3 μg/mL, 5 μL Rojo, Without PHA/IL2) was 15.7% and the “RT activity % VC” value (Rojo virus; 6.3 μg/mL, 10 μL Rojo, Without PHA/IL2) was 67.1%. For the same substance, the “RT activity % VC” value (Rojo virus; 6.3 μg/mL, 50 μL Rojo, With PHA/IL2) was 61.3%, the “RT activity % VC” value (Rojo virus; 6.3 μg/mL, 50 μL Rojo, Without PHA/IL2) was 21.3% and the “RT activity % VC” value (Rojo virus; 25 μg/mL, 5 μL GP120 IIIB, With PHA/IL2) was 85.5%. For the same substance, the “RT activity % VC” value (Rojo virus; 25 μg/mL, 5 μL GP120 IIIB, Without PHA/IL2) was 8.8%, the “RT activity % VC” value (Rojo virus; 25 μg/mL, 5 μL Rojo, Without PHA/IL2) was 8.8% and the “RT activity % VC” value (Rojo virus; 25 μg/mL, 10 μL Rojo, With PHA/IL2) was 97.3%. For the same substance, the “RT activity % VC” value (Rojo virus; 25 μg/mL, 10 μL Rojo, Without PHA/IL2) was 2.3%, the “RT activity % VC” value (Rojo virus; 25 μg/mL, 50 μL Rojo, With PHA/IL2) was 73.4% and the “RT activity % VC” value (Rojo virus; 25 μg/mL, 50 μL Rojo, Without PHA/IL2) was 8.4%. The “RT activity % VC” value (IIIB (HIV IIIB virus); 0.097656 μg/mL, GP120IIIB Sensitized, Standard) was 176.4%, the “RT activity % VC” value (IIIB (HIV IIIB virus); 0.097656 μg/mL, GP120IIIB Sensitized, Turpin) was 89.0% and the “RT activity % VC” value (IIIB (HIV IIIB virus); 0.097656 μg/mL, IIIB Sensitized, Standard) was 145.2%. The “RT activity % VC” value (IIIB (HIV IIIB virus); 0.097656 μg/mL, IIIB Sensitized, Turpin) was 98.7% and the “RT activity % VC” value (IIIB (HIV IIIB virus); 0.195313 μg/mL, GP120IIIB Sensitized, Standard) was 102.8%.
